{"source": "PubChem BioAssay AID1259407", "about": "(Chemical Carcinogenesis Research Information System (CCRIS), 2018)", "test_system": "CCRIS mutagenicity, Ames/micronucleus/aberration tests", "test": "CCRIS mutagenicity studies", "key": {"[1]": {"settings": "Test System: AMES SALMONELLA TYPHIMURIUM, Strain/Indicator: TA97, Metabolic Activation: NONE, Method: PREINCUBATION"}, "[2]": {"settings": "Test System: AMES SALMONELLA TYPHIMURIUM, Strain/Indicator: TA98, Metabolic Activation: NONE, Method: PREINCUBATION"}, "[3]": {"settings": "Test System: AMES SALMONELLA TYPHIMURIUM, Strain/Indicator: TA100, Metabolic Activation: NONE, Method: PREINCUBATION"}, "[4]": {"settings": "Test System: AMES SALMONELLA TYPHIMURIUM, Strain/Indicator: TA1535, Metabolic Activation: NONE, Method: PREINCUBATION"}, "[5]": {"settings": "Test System: AMES SALMONELLA TYPHIMURIUM, Strain/Indicator: TA1537, Metabolic Activation: NONE, Method: PREINCUBATION"}}, "note": "Activity calls are given as the source filed them. How the calls were made is not given here.", "data": [{"smiles": "CCCSC(=O)Cl", "values": [{"measurement": "mutagenic call", "setting": "Test System: AMES SALMONELLA TYPHIMURIUM, Strain/Indicator: TA97, Metabolic Activation: HAMSTER, LIVER, S-9, AROCLOR 1254 (30%), Method: PREINCUBATION", "value": "inactive; negative"}, {"measurement": "mutagenic call", "setting": "[1]", "value": "inactive; negative"}, {"measurement": "mutagenic call", "setting": "Test System: AMES SALMONELLA TYPHIMURIUM, Strain/Indicator: TA97, Metabolic Activation: RAT, LIVER, S-9, AROCLOR 1254 (30%), Method: PREINCUBATION", "value": "inactive; negative"}, {"measurement": "mutagenic call", "setting": "Test System: AMES SALMONELLA TYPHIMURIUM, Strain/Indicator: TA98, Metabolic Activation: HAMSTER, LIVER, S-9, AROCLOR 1254 (30%), Method: PREINCUBATION", "value": "inactive; negative"}, {"measurement": "mutagenic call", "setting": "[2]", "value": "inactive; negative"}, {"measurement": "mutagenic call", "setting": "Test System: AMES SALMONELLA TYPHIMURIUM, Strain/Indicator: TA98, Metabolic Activation: RAT, LIVER, S-9, AROCLOR 1254 (30%), Method: PREINCUBATION", "value": "inactive; negative"}, {"measurement": "mutagenic call", "setting": "Test System: AMES SALMONELLA TYPHIMURIUM, Strain/Indicator: TA100, Metabolic Activation: HAMSTER, LIVER, S-9, AROCLOR 1254 (30%), Method: PREINCUBATION", "value": "inactive; negative"}, {"measurement": "mutagenic call", "setting": "[3]", "value": "inactive; negative"}, {"measurement": "mutagenic call", "setting": "Test System: AMES SALMONELLA TYPHIMURIUM, Strain/Indicator: TA100, Metabolic Activation: RAT, LIVER, S-9, AROCLOR 1254 (30%), Method: PREINCUBATION", "value": "inactive; negative"}, {"measurement": "mutagenic call", "setting": "Test System: AMES SALMONELLA TYPHIMURIUM, Strain/Indicator: TA1535, Metabolic Activation: HAMSTER, LIVER, S-9, AROCLOR 1254 (5%), Method: PREINCUBATION", "value": "inactive; negative"}, {"measurement": "mutagenic call", "setting": "Test System: AMES SALMONELLA TYPHIMURIUM, Strain/Indicator: TA1535, Metabolic Activation: HAMSTER, LIVER, S-9, AROCLOR 1254 (10%), Method: PREINCUBATION", "value": "active; positive"}, {"measurement": "mutagenic call", "setting": "Test System: AMES SALMONELLA TYPHIMURIUM, Strain/Indicator: TA1535, Metabolic Activation: HAMSTER, LIVER, S-9, AROCLOR 1254 (30%), Method: PREINCUBATION", "value": "active; positive"}, {"measurement": "mutagenic call", "setting": "[4]", "value": "inactive; negative"}, {"measurement": "mutagenic call", "setting": "Test System: AMES SALMONELLA TYPHIMURIUM, Strain/Indicator: TA1535, Metabolic Activation: RAT, LIVER, S-9, AROCLOR 1254 (30%), Method: PREINCUBATION", "value": "inactive; negative"}, {"measurement": "mutagenic call", "setting": "Test System: AMES SALMONELLA TYPHIMURIUM, Strain/Indicator: TA1537, Metabolic Activation: HAMSTER, LIVER, S-9, AROCLOR 1254 (30%), Method: PREINCUBATION", "value": "inactive; negative"}, {"measurement": "mutagenic call", "setting": "[5]", "value": "inactive; negative"}, {"measurement": "mutagenic call", "setting": "Test System: AMES SALMONELLA TYPHIMURIUM, Strain/Indicator: TA1537, Metabolic Activation: RAT, LIVER, S-9, AROCLOR 1254 (30%), Method: PREINCUBATION", "value": "inactive; negative"}]}, {"smiles": "Nc1ccc2nc3ccccc3nc2c1", "values": [{"measurement": "mutagenic call", "setting": "[2]", "value": "inactive; negative"}, {"measurement": "mutagenic call", "setting": "Test System: AMES SALMONELLA TYPHIMURIUM, Strain/Indicator: TA98, Metabolic Activation: RAT, LIVER, S-9, PCB, Method: PREINCUBATION", "value": "active; positive"}]}, {"smiles": "O=O", "values": [{"measurement": "mutagenic call", "setting": "Test System: AMES SALMONELLA TYPHIMURIUM, Strain/Indicator: TA92, Metabolic Activation: NONE, Method: PREINCUBATION", "value": "inactive; negative"}, {"measurement": "mutagenic call", "setting": "[1]", "value": "inactive; negative"}, {"measurement": "mutagenic call", "setting": "[3]", "value": "inactive; negative"}, {"measurement": "mutagenic call", "setting": "Test System: AMES SALMONELLA TYPHIMURIUM, Strain/Indicator: TA102, Metabolic Activation: NONE, Method: PREINCUBATION", "value": "active; positive"}, {"measurement": "mutagenic call", "setting": "Test System: AMES SALMONELLA TYPHIMURIUM, Strain/Indicator: TA104, Metabolic Activation: NONE, Method: PREINCUBATION", "value": "active; positive"}, {"measurement": "mutagenic call", "setting": "[4]", "value": "inactive; negative"}, {"measurement": "mutagenic call", "setting": "[5]", "value": "inactive; negative"}, {"measurement": "mutagenic call", "setting": "Test System: CHINESE HAMSTER V-79, Strain/Indicator: V-79/8-AZAGUANINE, Metabolic Activation: NONE, Method: STANDARD PLATE", "value": "active; positive"}, {"measurement": "mutagenic call", "setting": "Test System: CHINESE HAMSTER V-79 CELLS, Strain/Indicator: V-79-UL (HPRT)/6-THIOGUANINE, Metabolic Activation: NONE, Method: SUSPENSION/PLATE", "value": "active; positive"}, {"measurement": "mutagenic call", "setting": "Test System: MOUSE LYMPHOMA, Strain/Indicator: L5178Y (TK+/-), Metabolic Activation: NONE, Method: SUSPENSION/PLATE", "value": "active; positive"}]}, {"smiles": "Clc1ccc(Cl)c(Cl)c1", "values": [{"measurement": "mutagenic call", "setting": "Test System: AMES SALMONELLA TYPHIMURIUM, Strain/Indicator: TA98, Metabolic Activation: HAMSTER, LIVER, S-9, AROCLOR 1254, Method: PREINCUBATION", "value": "inactive; negative"}, {"measurement": "mutagenic call", "setting": "[2]", "value": "inactive; negative"}, {"measurement": "mutagenic call", "setting": "Test System: AMES SALMONELLA TYPHIMURIUM, Strain/Indicator: TA98, Metabolic Activation: RAT, LIVER, S-9, AROCLOR 1254, Method: PREINCUBATION", "value": "inactive; negative"}, {"measurement": "mutagenic call", "setting": "Test System: AMES SALMONELLA TYPHIMURIUM, Strain/Indicator: TA100, Metabolic Activation: HAMSTER, LIVER, S-9, AROCLOR 1254, Method: PREINCUBATION", "value": "inactive; negative"}, {"measurement": "mutagenic call", "setting": "[3]", "value": "inactive; negative"}, {"measurement": "mutagenic call", "setting": "Test System: AMES SALMONELLA TYPHIMURIUM, Strain/Indicator: TA100, Metabolic Activation: RAT, LIVER, S-9, AROCLOR 1254, Method: PREINCUBATION", "value": "inactive; negative"}, {"measurement": "mutagenic call", "setting": "Test System: AMES SALMONELLA TYPHIMURIUM, Strain/Indicator: TA1535, Metabolic Activation: HAMSTER, LIVER, S-9, AROCLOR 1254, Method: PREINCUBATION", "value": "inactive; negative"}, {"measurement": "mutagenic call", "setting": "[4]", "value": "inactive; negative"}, {"measurement": "mutagenic call", "setting": "Test System: AMES SALMONELLA TYPHIMURIUM, Strain/Indicator: TA1535, Metabolic Activation: RAT, LIVER, S-9, AROCLOR 1254, Method: PREINCUBATION", "value": "inactive; negative"}, {"measurement": "mutagenic call", "setting": "Test System: AMES SALMONELLA TYPHIMURIUM, Strain/Indicator: TA1537, Metabolic Activation: HAMSTER, LIVER, S-9, AROCLOR 1254, Method: PREINCUBATION", "value": "inactive; negative"}, {"measurement": "mutagenic call", "setting": "[5]", "value": "inactive; negative"}, {"measurement": "mutagenic call", "setting": "Test System: AMES SALMONELLA TYPHIMURIUM, Strain/Indicator: TA1537, Metabolic Activation: RAT, LIVER, S-9, AROCLOR 1254, Method: PREINCUBATION", "value": "inactive; negative"}]}]}
